Consider seven molecules from patent US12606556B2, “TYK-2 inhibitor” (BEIGENE, LTD., priority 2020, dated 2026).

Experiment [1] has as its target T1, JAK1-JH2 protein (aa 561-860, in-house) (Homo sapiens, UniProt P23458).
T1 construct: JAK1-JH2 protein (aa 561-860, in-house); made in house
As to the kind of experiment: JAK1-JH2 biochemical assay (HTRF, blocking of JAK1-JH2 protein with its probe). The class given is binding. The conditions noted are these: 1.17 nM recombinant JAK1-JH2, Probe 2. How it is done: Assay B: JAK1-JH2 Biochemical Assay
Compounds disclosed herein were tested for blocking of JAK1-JH2 protein (aa 561-860, in-house) with its probe in an assay based on Homogeneous Time Resolved Fluorescence. Compound dilution is done according to the following protocol: (1) Prepare 500× compounds solution in DMSO from 500 uM by 5-fold dilution, total 10 doses were included; (2) Prepare 10× compounds solution in an assay buffer containing 20 mM HEPES, pH 7.5, 10 mM MgCl2, 0.005% BSA, 2 mM DTT, 0.015% Brij-35 by transferring 1 μl serial 500× stock solution into 49 μl assay buffer. 4 μL of 1.17 nM recombinant JAK1-JH2 protein was pre-incubated with 1 μl of 10×serial dilution of compounds at room temperature for 0.5 hour. […] The HTRF signals (ex337 nm, em620 nm/665 nm) were read on BMG PHERAstar FS instrument. The inhibition percentage of JAK1 interaction with its probe in presence of increasing concentrations of compounds was calculated based on the ratio of fluorescence at 615 nm to that at 665 nm. The IC50 for each compound was derived from fitting the data to the four-parameter logistic equation by Dotmatics.

Experiment [2] concerns JAK1/p-STAT3(Tyr705) activated by IL-6 in TF-1 cell line. As to the kind of experiment: IL-6-JAK1/p-STAT3(Tyr705) inhibition cellular assay. The class given is cell-based. The conditions noted are these: Homo sapiens, 0.5 h; TF-1 cells, IL-6 50 ng/ml, 30 min; read-out: Cellular assay pSTAT3/IL-6 IC50. The text has this: Assay D: IL-6-JAK1/p-STAT3(Tyr705) Inhibition IC50 Cellular Assay
To evaluate the inhibition effect of compounds disclosed herein on JAK1/p-STAT3(Tyr705) activated by IL-6 in TF-1 cell line, TF-1 cells were collected and washed 3 times by DPBS and resuspended in RPMI-1640 (phenol red free, Gibco, Cat #11835-030) with 0.1% FBS (Gibco, Cat #10099, Lot #1891605), without GM-CSF(R&D systems,Cat #215-GM-050), starved overnight. Cells were collected and resuspended in 1640 medium (phenol red free, Gibco, Cat #11835-030) with 0.1% BSA, and 12.5 μl/10×10^4/well cell suspension were seeded to the 96-well plate (Corning, Cat #3799). Then cells were treated with compounds diluted in 0.2% DMSO 1640 medium, at 37° C., 1 h. Dilution is done according to the following protocol: (1) make 500× compounds solution in DMSO from 5 mM by 4-fold dilution, total 8 doses were included; (3) make 2× compounds solution in assay medium by transferring 0.5 μl serial 500× stock solution into 125 μl assay medium; (4) 15 μl of 2× solution is added to cells and incubate at 37° C. for 1 h, the final compound conc. is 10000,2500,625,156.25,39,9.8,2.4 and 0.61 nM, respectively. After 1 h, cells were treated with 2.5 μl medium containing IL-6 at 37° C. (R&D systems, Cat #206-IL-010, final conc.50 ng/ml), 30 min. Following cells were lysed with 10 μl lysis buffer at RT, shaking on shaker for 1 h. 16 μL of cell lysate were transferred to a PE 384-well HTRF detection plate, and 4 μL of pre-mixed HTRF antibodies were added to each well. Covered the plate with a plate sealer, span 1000 rpm for 1 min, mix, Incubated overnight at room temperature. Read on BMG PheraStar with HTRF protocol (337 nm-665 nm-620 nm). IC 50 values were calculated by fitting dependent data to the four-parameter logistic model using dotmatics software. The assay was performed by using HTRF Phospho-STAT3(Tyr705) Cellular Assay Kit (Cisbio, Cat #62AT3PEG).

Experiment [3] addresses T2, TYK2-JH2 (aa 575-869, in-house) protein (Homo sapiens, UniProt P29597).
T2 construct: TYK2-JH2 (aa 575-869, in-house) protein; made in house
As to the kind of experiment: TYK2-JH2 biochemical assay (HTRF, blocking of TYK2-JH2 protein with its probe). It is filed as binding. The conditions noted are these: for IC50: HTRF, 0.2 nM recombinant TYK2-JH2, Probe 1; for Biochemical assay Selectivity fold (TYK2/JAK1): TYK2-JH2 vs JAK1-JH2 biochemical IC50. How it is done:
Assay A: TYK2-JH2 Biochemical Assay
Compounds disclosed herein were tested for blocking of TYK2-JH2 (aa 575-869, in-house) protein with its probe in an assay based on Homogeneous Time Resolved Fluorescence.
Compound dilution is done according to the following protocol: (1) Prepare 500× compounds solution in DMSO from 500 uM by 5-fold dilution, total 10 doses were included; (2) Prepare 10× compounds solution in an assay buffer containing 20 mM HEPES, pH 7.5, 10 mM MgCl2, 0.005% BSA, 2 mM DTT, 0.015% Brij-35 by transferring 1 μl serial 500× stock solution into 49 μl assay buffer. 4 μl of 0.2 nM recombinant TYK2-JH2 protein was pre-incubated with 1 μl of 10×serial dilution of compounds at room temperature for 0.5 hour. Then 5 μl of 10 nM in-house Probe 1 (6-((3,5-dimethylphenyl)amino)-8-((4,26-dioxo-30-((3aS,4S,6aR)-2-oxohexahydro-1H-thieno[3,4-d]imidazol-4-yl)-7,10,13,16,19,22-hexaoxa-3,25-diazatriacontyl)amino)imidazo[1,2-b]pyridazine-3-carboxamide, KD=10 nM), 5 μl Mab Anti-6His Tb cryptate Gold (Cat: 61HI2TLB, Cisbio Bioassays) and Streptavidin-XL665(Cat: 610SAXLB, Cisobio Bioassays) mixture were added to plate and further incubated at room temperature for 1 hour. The HTRF signals (ex337 nm, em620 nm/665 nm) were read on BMG PHERAstar FS instrument. The inhibition percentage of TYK2 interaction with its probe in presence of increasing concentrations of compounds was calculated based on the ratio of fluorescence at […]. The IC50 for each compound was derived from fitting the data to the four-parameter logistic equation by Dotmatics.

In experiment [4] the test system is JAK2, TYK2/p-STAT4 (Tyr693) activated by IL-12 in NK-92 cell line. As to the kind of experiment: IL-12-JAK2, TYK2/p-STAT4 (Tyr693) inhibition cellular assay. It is filed as cell-based. The conditions noted are these: for IC50: NK92, 0.5 h, NK-92 cells, IL-12 40 ng/ml, 30 min, read-out: Cellular assay pSTAT4/IL-12 IC50; for Cellular assay Selectivity fold (TYK2/JAK1): pSTAT4/IL-12 vs pSTAT3/IL-6 cellular IC50. The text has this:
Assay C: IL-12-JAK2, TYK2/p-STAT4 (Tyr693) Inhibition IC50 Cellular Assay
To evaluate the inhibition effect of compounds disclosed herein on JAK2, TYK2/p-STAT4 (Tyr693) activated by IL-12 in NK-92 cell line, NK-92 cells were collected and washed 3 times by DPBS and resuspended in MEM-α(GIBCO,Cat #12561056) with 10% FBS (Gibco, Cat #10099, Lot #1891605), without IL-2 (R&D systems,Cat #202-IL), starved overnight. Cells were collected and resuspended in 1640 medium (phenol red free, Gibco, Cat #11835-030) with 0.1% BSA, and 12.5 μl/5×10^4/well cell suspension were seeded to the 96-well plate (Corning, Cat #3799). Then cells were treated with compounds diluted in 0.2% DMSO 1640 medium, at 37° C., 1 h. Dilution is done according to the following protocol: (1) make 500× compounds solution in DMSO from 5 mM by 4-fold dilution, total 8 doses were included; (3) make 2× compounds solution in assay medium by transferring 0.5 μl serial 500× stock solution into 125 μl assay medium; (4) 15 μl of 2× serial solution is added to cells and incubate at 37° C. for 1 h, the final compound conc. is 10000,2500,625,156.25,39,9.8,2.4 and 0.61 nM, respectively. After 1 h, cells were treated with 2.5 μl medium containing IL-12 at 37° C. (R&D systems, Cat #219-IL-005, final conc.40 ng/ml), 30 min. Following cells were lysed with 7.5 μl lysis buffer at RT, shaking on shaker for 1 h. 10 μL of cell lysate were transferred to a PE 384-well Proxiplate detection plate, and 5 μL of pre-mixed Alphascreen beads were added to each well. Covered the plate with a plate sealer, span 1000 rpm for 1 min, mix, Incubated overnight at room temperature. Read on BMG PheraStar with Alphascreen protocol. IC 50 values were calculated by fitting dependent data to the four-parameter logistic model using dotmatics software. The assay was performed by using AlphaLISA SureFire Ultra p-STAT4 (Tyr693) Assay Kit—High Volume (PE, Cat #ALSU-PST4-A-HV).

A value given as a limit tells only on which side of the number the result lay.

T1 sequence (P23458 561-860): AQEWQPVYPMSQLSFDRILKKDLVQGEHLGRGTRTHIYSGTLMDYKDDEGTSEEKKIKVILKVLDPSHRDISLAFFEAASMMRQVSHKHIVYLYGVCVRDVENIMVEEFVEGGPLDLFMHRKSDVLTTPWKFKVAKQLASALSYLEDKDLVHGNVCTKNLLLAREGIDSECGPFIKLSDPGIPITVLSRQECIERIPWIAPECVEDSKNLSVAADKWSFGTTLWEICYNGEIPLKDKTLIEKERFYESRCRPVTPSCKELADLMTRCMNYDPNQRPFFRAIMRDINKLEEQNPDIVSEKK
T2 sequence (P29597 575-869): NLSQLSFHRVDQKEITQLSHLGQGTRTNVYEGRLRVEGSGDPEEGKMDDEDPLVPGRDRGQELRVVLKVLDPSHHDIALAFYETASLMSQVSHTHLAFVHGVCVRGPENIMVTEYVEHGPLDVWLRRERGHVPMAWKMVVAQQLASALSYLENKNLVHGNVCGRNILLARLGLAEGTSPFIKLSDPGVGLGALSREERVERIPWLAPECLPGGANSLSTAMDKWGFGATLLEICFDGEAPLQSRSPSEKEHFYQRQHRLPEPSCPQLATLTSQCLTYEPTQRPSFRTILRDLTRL

Consider `CNC(=O)c1nnc(NC(=O)C2CC2)cc1Nc1nc2ccc(N3CC(CC(F)F)C3)cn2n1` [Example E4, 6-(cyclopropanecar-boxamido)-4-((6-(3-(2,2-difluoroethyl)azetidin-1-yl)-[1,2,4]triazolo[1,5-a]pyridin-2-yl)amino)-N-methylpyridazine-3-carboxamide], for which the IC50 amounted to 1.5 nM in experiment [1], 5400 nM in experiment [2], 0.044 nM in experiment [3] and 10 nM in experiment [4]. In addition, the “Biochemical assay Selectivity fold (TYK2/JAK1)” value in experiment [3] is 34 fold. Besides, in experiment [4], the “Cellular assay Selectivity fold (TYK2/JAK1)” value turned out to be 540 fold.
With `CNC(=O)c1nnc(NC(=O)C2CC2)cc1Nc1nc2ccc(N3CC(N(C)C)C3)cn2n1` [Example E5, 6-(cyclopropanecar-boxamido)-4-((6-(3-(dimethylamino)azetidin-1-yl)-[1,2,4]triazolo [1,5-a]pyridin-2-yl)amino)-N-methylpyridazine-3-carboxamide], the IC50 came out at 1.7 nM in experiment [1], 7270 nM in experiment [2], 0.064 nM in experiment [3] and 16 nM in experiment [4]. Moreover, the “Biochemical assay Selectivity fold (TYK2/JAK1)” value in experiment [3] came to 26 fold. Further, in experiment [4], the “Cellular assay Selectivity fold (TYK2/JAK1)” value is reported as 454 fold.
For the molecule `CNC(=O)c1nnc(NC(=O)C2CC2)cc1Nc1nc2ccc(N3CC(C)(N(C)C)C3)cn2n1` [Example E6], the IC50 was 0.56 nM in experiment [1], 1640 nM in experiment [2], 0.056 nM in experiment [3] and 15.4 nM in experiment [4]. Moreover, the “Biochemical assay Selectivity fold (TYK2/JAK1)” value in experiment [3] was determined as 10 fold. Also, in experiment [4], the “Cellular assay Selectivity fold (TYK2/JAK1)” value is 106 fold.
Regarding `CNC(=O)c1nnc(NC(=O)C2CC2)cc1Nc1nc2ccc(N3CC(c4ncn(C)n4)C3)cn2n1` [Example E7, 6-(cyclopropanecar-boxamido)-N-methyl-4-((6-(3-(1-methyl-1H-1,2,4-triazol-3-yl)azetidin-1-yl)-[1,2,4]triazolo [1,5-a]pyridin-2-yl)amino)pyridazine-3-carboxamide], the IC50 in experiment [1] was 0.78 nM; in experiment [2], above 10000 nM; in experiment [3], 0.084 nM; in experiment [4], 47.8 nM. Moreover, in experiment [3], the “Biochemical assay Selectivity fold (TYK2/JAK1)” value stood at 9 fold. In experiment [4], the “Cellular assay Selectivity fold (TYK2/JAK1)” value is above 209 fold.
For `CNC(=O)c1nnc(NC(=O)C2CC2)cc1Nc1nc2ccc(N3CC(C)(C)C3)cn2n1` [Example E8, 6-(cyclopropanecar-boxamido)-4-((6-(3,3-dimethylazetidin-1-yl)-[1,2,4]triazolo[1,5-a]pyridin-2-yl)amino)-N-methylpyridazine-3-carboxamide], the IC50 in experiment [1] is 3 nM; in experiment [2] it was above 10000 nM; in experiment [3] it was 0.044 nM; in experiment [4] it was 13.8 nM. Moreover, the “Biochemical assay Selectivity fold (TYK2/JAK1)” value in experiment [3] is listed as 68 fold. Further, the “Cellular assay Selectivity fold (TYK2/JAK1)” value in experiment [4] is on record as above 724 fold.
On to `CNC(=O)c1nnc(NC(=O)C2CC2)cc1Nc1nc2ccc(N3CC(F)C3)cn2n1` [Example E9, 6-(cyclopropanecar-boxamido)-4-((6-(3-fluoroazetidin-1-yl)-[1,2,4]triazolo[1,5-a]pyridin-2-yl)amino)-N-methylpyridazine-3-carboxamide], for which the IC50 is 2.4 nM in experiment [1], above 10000 nM in experiment [2], 0.097 nM in experiment [3] and 19.6 nM in experiment [4]. Further, the “Biochemical assay Selectivity fold (TYK2/JAK1)” value in experiment [3] stood at 25 fold. For the same molecule, the “Cellular assay Selectivity fold (TYK2/JAK1)” value in experiment [4] was above 510 fold.
With `CNC(=O)c1nnc(NC(=O)C2CC2)cc1Nc1nc2ccc(N3CC(F)(F)C3)cn2n1` [Example E10, 6-(cyclopropanecar-boxamido)-4-((6-(3,3-difluoroazetidin-1-yl)-[1,2,4]triazolo[1,5-a]pyridin-2-yl)amino)-N-methylpyridazine-3-carboxamide], the IC50 in experiment [1] is 3 nM; in experiment [2], above 10000 nM; in experiment [3] it was 0.15 nM; in experiment [4], 47 nM. Moreover, in experiment [3], the “Biochemical assay Selectivity fold (TYK2/JAK1)” value is 20 fold. Besides, the “Cellular assay Selectivity fold (TYK2/JAK1)” value in experiment [4] is reported as above 212 fold.
